The values below come from patent US20230143604A1, “QW DOSING OF GIP RECEPTOR AGONIST PEPTIDE COMPOUNDS AND USES THEREOF” (TAKEDA PHARMACEUTICAL COMPANY LIMITED, priority 2020, published 2023).

Starred links: 1 amine or outer side, 2 acyl side, 3 side chain; linkers in the order of their positions; H or OH if unused. Positions of bridges follow the written chain, without caps; N, C: chain ends. Non-standard residues stand in square brackets, D forms with d. Residues, ends and D or L forms follow the SMILES beside them. Groups on a side chain read outwards from the residue. Chains are numbered I, II in the order given. *: point of attachment. C18 diacid = O=C(O)CCCCCCCCCCCCCCCCC(=O)*; C17 diacid = O=C(O)CCCCCCCCCCCCCCCC(=O)*; γGlu = O=C(O)[C@H](CCC(=O)[*:2])N[*:1]; NMeY = CN[C@@H](Cc1ccc(O)cc1)C(=O)O; AEEA = NCCOCCOCC(=O)O; Aib = CC(C)(N)C(=O)O

This data set can be described thus: physchem. In short, it runs like this: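 Solubility at pH 7.4 determined by stepwise addition of 200 mM phosphate buffer in 100 μL increments to 3 mg peptide, mixing briefly each time, until no insoluble material remained, then measured by liquid chromatography.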
Where [1] appears, read: pH 7.4, aqueous buffer, pH 7.4 Phosphate Buffer - Solubility, 200 mM Phosphate buffer pH 7.4.
The mark [2] stands for this setting: pH 7.4, solubility in phosphate buffer at pH 7.4, 200 mM phosphate buffer pH 7.4.

Take `CC[C@H](C)[C@H](NC(=O)[C@H](CO)NC(=O)[C@H](Cc1ccc(O)cc1)NC(=O)[C@H](CC(=O)O)NC(=O)[C@H](CO)NC(=O)[C@@H](NC(=O)[C@H](Cc1ccccc1)NC(=O)[C@@H](NC(=O)CNC(=O)[C@H](CCC(=O)O)NC(=O)C(C)(C)NC(=O)[C@H](Cc1ccc(O)cc1)NC)[C@@H](C)O)[C@@H](C)CC)C(=O)N[C@@H](C)C(=O)N[C@@H](CCCCNC(=O)CNC(=O)CNC(=O)CNC(=O)CNC(=O)CNC(=O)CCCCCCCCCCCCCCCCC(=O)O)C(=O)N[C@@H](CC(=O)O)C(=O)N[C@@H](CCCNC(=N)N)C(=O)NC(C)(C)C(=O)N[C@@H](C)C(=O)N[C@@H](CCC(N)=O)C(=O)NC(C)(C)C(=O)N[C@@H](CC(N)=O)C(=O)N[C@@H](Cc1ccccc1)C(=O)N[C@H](C(=O)N[C@@H](CC(N)=O)C(=O)N[C@@H](Cc1c[nH]c2ccccc12)C(=O)N[C@@H](CC(C)C)C(=O)N[C@@H](CC(C)C)C(=O)N[C@@H](C)C(=O)N[C@@H](CCC(N)=O)C(=O)N[C@@H](CCCNC(=N)N)C(N)=O)C(C)C` [Compound 250]: where the note is “pH 7.4, aqueous buffer”, the solubility is not below 0.7 mg/mL.
The compound `CC[C@H](C)[C@H](NC(=O)[C@H](CO)NC(=O)[C@H](Cc1ccc(O)cc1)NC(=O)[C@H](CC(=O)O)NC(=O)[C@H](CO)NC(=O)[C@@H](NC(=O)[C@H](Cc1ccccc1)NC(=O)[C@@H](NC(=O)CNC(=O)[C@H](CCC(=O)O)NC(=O)C(C)(C)NC(=O)[C@H](Cc1ccc(O)cc1)NC)[C@@H](C)O)[C@@H](C)CC)C(=O)N[C@@H](C)C(=O)N[C@@H](CCCCNC(=O)COCCOCCNC(=O)COCCOCCNC(=O)CC[C@H](NC(=O)CCCCCCCCCCCCCCCCC(=O)O)C(=O)O)C(=O)N[C@@H](CC(=O)O)C(=O)N[C@@H](CCCNC(=N)N)C(=O)NC(C)(C)C(=O)N[C@@H](C)C(=O)N[C@@H](CCC(N)=O)C(=O)N[C@@H](CCC(N)=O)C(=O)N[C@@H](CC(N)=O)C(=O)N[C@@H](Cc1ccccc1)C(=O)N[C@H](C(=O)N[C@@H](CC(N)=O)C(=O)N[C@@H](Cc1c[nH]c2ccccc12)C(=O)N[C@@H](CC(C)C)C(=O)N[C@@H](CC(C)C)C(=O)N[C@@H](C)C(=O)N[C@@H](CCC(N)=O)C(=O)N[C@@H](CCCNC(=N)N)C(N)=O)C(C)C` [Compound 253] (H-[NMeY][Aib]EGTFISDYSIAK([AEEA-AEEA-γGlu-C18 diacid])DR[Aib]AQQNFVNWLLAQR-NH2) registered a solubility (pH 7.4, aqueous buffer) not below 7.4 mg/mL.
On to `CC[C@H](C)[C@H](NC(=O)[C@H](CCCCN)NC(=O)[C@H](CC(=O)O)NC(=O)[C@H](CC(C)C)NC(=O)[C@H](C)NC(=O)[C@@H](NC(=O)[C@H](CO)NC(=O)[C@H](Cc1ccc(O)cc1)NC(=O)[C@H](CC(=O)O)NC(=O)[C@H](CO)NC(=O)[C@@H](NC(=O)[C@H](Cc1ccccc1)NC(=O)[C@@H](NC(=O)CNC(=O)[C@H](CCC(=O)O)NC(=O)C(C)(C)NC(=O)[C@H](Cc1ccc(O)cc1)NC)[C@@H](C)O)[C@@H](C)CC)[C@@H](C)CC)C(=O)N[C@@H](C)C(=O)N[C@@H](CCC(N)=O)C(=O)NC(C)(C)C(=O)N[C@@H](CCCCNC(=O)COCCOCCNC(=O)COCCOCCNC(=O)CC[C@H](NC(=O)CC[C@H](NC(=O)CCCCCCCCCCCCCCCCC(=O)O)C(=O)O)C(=O)O)C(=O)N[C@@H](Cc1ccccc1)C(=O)N[C@H](C(=O)N[C@@H](CCC(=O)O)C(=O)N[C@@H](Cc1c[nH]c2ccccc12)C(=O)N[C@@H](CC(C)C)C(=O)N[C@@H](CC(C)C)C(=O)N[C@@H](C)C(=O)N[C@@H](CCC(N)=O)C(=O)N[C@@H](CCCNC(=N)N)C(=O)NCC(=O)O)C(C)C` [Compound 173] (H-[NMeY][Aib]EGTFISDYSIALDKIAQ[Aib]K([AEEA-AEEA-γGlu-γGlu-C18 diacid])FVEWLLAQRG-OH), for which the solubility is not below 15 mg/mL (pH 7.4) and not below 30 mg/mL (pH 7.4, aqueous buffer).
The like results for `CC[C@H](C)[C@H](NC(=O)[C@H](CO)NC(=O)[C@H](Cc1ccc(O)cc1)NC(=O)[C@H](CC(=O)O)NC(=O)[C@H](CO)NC(=O)[C@@H](NC(=O)[C@H](Cc1ccccc1)NC(=O)[C@@H](NC(=O)CNC(=O)[C@H](CCC(=O)O)NC(=O)C(C)(C)NC(=O)[C@@H](N)Cc1ccc(O)cc1)[C@@H](C)O)[C@@H](C)CC)C(=O)N[C@@H](C)C(=O)N[C@@H](CC(C)C)C(=O)N[C@@H](CC(=O)O)C(=O)N[C@@H](CCCCN)C(=O)N[C@@H](C)C(=O)N[C@@H](CCCCNC(=O)COCCOCCNC(=O)COCCOCCNC(=O)CC[C@H](NC(=O)CCCCCCCCCCCCCCCCC(=O)O)C(=O)O)C(=O)N[C@@H](CCC(N)=O)C(=O)NC(C)(C)C(=O)N[C@@H](CC(=O)O)C(=O)N[C@@H](Cc1ccccc1)C(=O)N[C@H](C(=O)N[C@@H](CCC(=O)O)C(=O)N[C@@H](Cc1c[nH]c2ccccc12)C(=O)N[C@@H](CC(C)C)C(=O)N[C@@H](CC(C)C)C(=O)N[C@@H](C)C(=O)N[C@@H](CCC(N)=O)C(=O)N[C@@H](CCCNC(=N)N)C(=O)NCC(=O)O)C(C)C` [Compound 161] (H-Y[Aib]EGTFISDYSIALDKAK([AEEA-AEEA-γGlu-C18 diacid])Q[Aib]DFVEWLLAQRG-OH) were, in that order, not below 15 mg/mL and not below 30 mg/mL.
Compound `CC[C@H](C)[C@H](NC(=O)[C@H](Cc1ccccc1)NC(=O)[C@@H](NC(=O)CNC(=O)[C@H](CCC(=O)O)NC(=O)C(C)(C)NC(=O)[C@@H](N)Cc1ccc(O)cc1)[C@@H](C)O)C(=O)N[C@@H](CO)C(=O)N[C@@H](CC(=O)O)C(=O)N[C@@H](Cc1ccc(O)cc1)C(=O)N[C@@H](CO)C(=O)N[C@H](C(=O)NC(C)(C)C(=O)N[C@@H](CCCCNC(=O)CNC(=O)CNC(=O)CNC(=O)CNC(=O)CNC(=O)CCCCCCCCCCCCCCCCC(=O)O)C(=O)N[C@@H](CC(=O)O)C(=O)N[C@@H](CCCNC(=N)N)C(=O)NC(C)(C)C(=O)N[C@@H](C)C(=O)N[C@@H](CCC(N)=O)C(=O)N[C@@H](CCCNC(=N)N)C(=O)N[C@@H](CC(=O)O)C(=O)N[C@@H](Cc1ccccc1)C(=O)N[C@H](C(=O)N[C@@H](CCC(=O)O)C(=O)N[C@@H](Cc1c[nH]c2ccccc12)C(=O)N[C@@H](CC(C)C)C(=O)N[C@@H](CC(C)C)C(=O)N[C@@H](C)C(=O)N[C@@H](CCC(N)=O)C(=O)N[C@@H](CCCNC(=N)N)C(=O)NCC(=O)O)C(C)C)[C@@H](C)CC` [Compound 147] displayed a solubility (pH 7.4) not below 15 mg/mL.
In the case of `CC[C@H](C)[C@H](NC(=O)[C@H](CO)NC(=O)[C@H](Cc1ccc(O)cc1)NC(=O)[C@H](CC(=O)O)NC(=O)[C@H](CO)NC(=O)[C@@H](NC(=O)[C@H](Cc1ccccc1)NC(=O)[C@@H](NC(=O)CNC(=O)[C@H](CCC(=O)O)NC(=O)C(C)(C)NC(=O)[C@H](Cc1ccc(O)cc1)NC)[C@@H](C)O)[C@@H](C)CC)C(=O)N[C@@H](C)C(=O)N[C@@H](CCCCNC(=O)CC[C@H](NC(=O)CC[C@H](NC(=O)CC[C@H](NC(=O)CCCCCCCCCCCCCCCC(=O)O)C(=O)O)C(=O)O)C(=O)O)C(=O)N[C@@H](CC(=O)O)C(=O)N[C@@H](CCCNC(=N)N)C(=O)NC(C)(C)C(=O)N[C@@H](C)C(=O)N[C@@H](CCC(N)=O)C(=O)NC(C)(C)C(=O)N[C@@H](CC(N)=O)C(=O)N[C@@H](Cc1ccccc1)C(=O)N[C@H](C(=O)N[C@@H](CC(N)=O)C(=O)N[C@@H](Cc1c[nH]c2ccccc12)C(=O)N[C@@H](CC(C)C)C(=O)N[C@@H](CC(C)C)C(=O)N[C@@H](C)C(=O)N[C@@H](CCC(N)=O)C(=O)N[C@@H](CO)C(=O)N1CCC[C@H]1C(=O)N[C@@H](CO)C(=O)N[C@@H](CO)C(=O)NCC(=O)N[C@@H](C)C(=O)N1CCC[C@H]1C(=O)N1CCC[C@H]1C(=O)N1CCC[C@H]1C(=O)N[C@@H](CO)C(N)=O)C(C)C` [Compound 12] (H-[NMeY][Aib]EGTFISDYSIAK([γGlu-γGlu-γGlu-C17 diacid])DR[Aib]AQ[Aib]NFVNWLLAQSPSSGAPPPS-NH2), the solubility was not below 30 mg/mL under setting [1] and not below 15 mg/mL under setting [2].
In the case of “I: H-[NMeY][Aib]EGTFISDYSIALDR[Aib]AQ[Aib]KFVNWLLAQSPSSGAPPPS-OH / II: {C18 diacid-γGlu}-PAPAPGG (amide I:21-II:C) [Compound 104]”, the solubility by setting is: under setting [1], not below 60 mg/mL; under setting [2], not below 15 mg/mL.
With `CC[C@H](C)[C@H](NC(=O)[C@H](CO)NC(=O)[C@H](Cc1ccc(O)cc1)NC(=O)[C@H](CC(=O)O)NC(=O)[C@H](CO)NC(=O)[C@@H](NC(=O)[C@H](Cc1ccccc1)NC(=O)[C@@H](NC(=O)CNC(=O)[C@H](CCC(=O)O)NC(=O)C(C)(C)NC(=O)[C@H](Cc1ccc(O)cc1)NC)[C@@H](C)O)[C@@H](C)CC)C(=O)N[C@@H](C)C(=O)N[C@@H](CC(C)C)C(=O)N[C@@H](CC(=O)O)C(=O)N[C@@H](CCCNC(=N)N)C(=O)NC(C)(C)C(=O)N[C@@H](CCCCNC(=O)COCCOCCNC(=O)COCCOCCNC(=O)CC[C@H](NC(=O)CCCCCCCCCCCCCCCC(=O)O)C(=O)O)C(=O)N[C@@H](CCC(N)=O)C(=O)NC(C)(C)C(=O)N[C@@H](CC(N)=O)C(=O)N[C@@H](Cc1ccccc1)C(=O)N[C@H](C(=O)N[C@@H](CC(N)=O)C(=O)N[C@@H](Cc1c[nH]c2ccccc12)C(=O)N[C@@H](CC(C)C)C(=O)N[C@@H](CC(C)C)C(=O)N[C@@H](C)C(=O)N[C@@H](CCC(N)=O)C(=O)N[C@@H](CO)C(=O)N1CCC[C@H]1C(=O)N[C@@H](CO)C(=O)N[C@@H](CO)C(=O)NCC(=O)N[C@@H](C)C(=O)N1CCC[C@H]1C(=O)N1CCC[C@H]1C(=O)N1CCC[C@H]1C(=O)N[C@@H](CO)C(N)=O)C(C)C` [Compound 268] (H-[NMeY][Aib]EGTFISDYSIALDR[Aib]K([AEEA-AEEA-γGlu-C17 diacid])Q[Aib]NFVNWLLAQSPSSGAPPPS-NH2), the solubility under setting [1] was not below 10 mg/mL.
